Results published in the NIST ThermoML archive (doi:10.1021/je0340755).

Assay: xn = mol fraction of the nth substance listed
Conditions: 101.3 kPa, Liquid; for viscosity: Capillary tube (Ostwald / Ubbelohde) method

CC(O)CO (centres undefined) [1,2-propanediol] + O
Conditions	mass density [kg/m3]	speed of sound [m/s]	viscosity [mPa·s]
298.15 K, x2 = 0.044	1033.39	1511.4	41.25
298.15 K, x2 = 0.0987	1034.15	1518.3	38.41
298.15 K, x2 = 0.1484	1034.84	1523	35.74
298.15 K, x2 = 0.2498	1036.3	1531.6	30.2
298.15 K, x2 = 0.3494	1037.8	1551.3	24.83
298.15 K, x2 = 0.4494	1039.24	1581.6	19.71
298.15 K, x2 = 0.5029	1039.87	1602.9	17.14
298.15 K, x2 = 0.5499	1040.27	1622.2	15
298.15 K, x2 = 0.5597	1040.33	1626.9	14.56
298.15 K, x2 = 0.6501	1040.2	1660.5	10.84
298.15 K, x2 = 0.7499	1037.73	1687.6	7.287
298.15 K, x2 = 0.85	1030.31	1676.8	4.325
298.15 K, x2 = 0.9003	1023.26	1642.7	3.049
298.15 K, x2 = 0.9115	1021.26	1632.5	2.782
298.15 K, x2 = 0.9154	1020.51	1627.5	2.692
298.15 K, x2 = 0.927	1018.16	1614.3	2.425
298.15 K, x2 = 0.9367	1016.02	1602.1	2.208
298.15 K, x2 = 0.9504	1012.69	1582.9	1.907
298.15 K, x2 = 0.9551	1011.46	1577.5	1.806
298.15 K, x2 = 0.96	1010.13	1570.2	1.701
298.15 K, x2 = 0.9696	1007.36	1554.1	1.501
298.15 K, x2 = 0.9797	1004.21	1535.9	1.294
298.15 K, x2 = 0.9902	1000.65	1518	1.083
298.15 K, x2 = 0.9923	999.9	1513.6	1.041
298.15 K, x2 = 0.9948	998.99	1508.4	0.992
308.15 K, x2 = 0.044	1026.01	1502.9	23.03
308.15 K, x2 = 0.0987	1026.76	1509.5	21.43
308.15 K, x2 = 0.1484	1027.45	1513.1	19.93
308.15 K, x2 = 0.2498	1028.92	1524.5	16.8
308.15 K, x2 = 0.3494	1030.43	1541.8	13.77
308.15 K, x2 = 0.4494	1031.91	1565.2	10.9
308.15 K, x2 = 0.5029	1032.59	1581.4	9.465
308.15 K, x2 = 0.5499	1033.05	1598.4	8.274
308.15 K, x2 = 0.5597	1033.12	1602.2	8.034
308.15 K, x2 = 0.6501	1033.19	1640	5.979
308.15 K, x2 = 0.7499	1031.14	1672.3	4.049
308.15 K, x2 = 0.85	1024.53	1660.9	2.473
308.15 K, x2 = 0.9003	1018.14	1628.3	1.81
308.15 K, x2 = 0.9115	1016.3	1618.4	1.673
308.15 K, x2 = 0.9154	1015.63	1614.8	1.626
308.15 K, x2 = 0.927	1013.47	1603.4	1.491
308.15 K, x2 = 0.9367	1011.51	1593.2	1.379
308.15 K, x2 = 0.9504	1008.45	1578	1.227
308.15 K, x2 = 0.9551	1007.32	1572.6	1.177
308.15 K, x2 = 0.96	1006.1	1566.9	1.124
308.15 K, x2 = 0.9696	1003.55	1555.5	1.023
308.15 K, x2 = 0.9797	1000.65	1543.3	0.919
308.15 K, x2 = 0.9902	997.36	1530.7	0.815
308.15 K, x2 = 0.9923	996.67	1528.2	0.794
308.15 K, x2 = 0.9948	995.83	1525.2	0.769
318.15 K, x2 = 0.044	1017.94	1451.7	–
318.15 K, x2 = 0.0987	1018.71	1458.8	–
318.15 K, x2 = 0.1484	1019.41	1463.2	–
318.15 K, x2 = 0.2498	1020.89	1476.1	–
318.15 K, x2 = 0.3494	1022.37	1495.1	–
318.15 K, x2 = 0.4494	1023.79	1520.3	–
318.15 K, x2 = 0.5029	1024.44	1537.6	5.202
318.15 K, x2 = 0.5499	1024.88	1555.5	4.639
318.15 K, x2 = 0.5597	1024.96	1559.6	4.528
318.15 K, x2 = 0.6501	1025.1	1599.9	3.576
318.15 K, x2 = 0.7499	1023.4	1637.6	2.675
318.15 K, x2 = 0.85	1017.63	1637.9	1.864
318.15 K, x2 = 0.9003	1011.96	1615	1.462
318.15 K, x2 = 0.9115	1010.33	1607.7	1.37
318.15 K, x2 = 0.9154	1009.72	1605	1.338
318.15 K, x2 = 0.927	1007.79	1596.5	1.242
318.15 K, x2 = 0.9367	1006.03	1589	1.16
318.15 K, x2 = 0.9504	1003.28	1577.7	1.043
318.15 K, x2 = 0.9551	1002.26	1573.6	1.003
318.15 K, x2 = 0.96	1001.16	1569.4	0.96
318.15 K, x2 = 0.9696	998.86	1561	0.876
318.15 K, x2 = 0.9797	996.22	1552.2	0.784
318.15 K, x2 = 0.9902	993.24	1543.1	0.688
318.15 K, x2 = 0.9923	992.61	1541.4	0.668
318.15 K, x2 = 0.9948	991.85	1539.3	0.645
328.15 K, x2 = 0.044	1010.15	1414.3	9.223
328.15 K, x2 = 0.0987	1010.89	1421.8	8.612
328.15 K, x2 = 0.1484	1011.57	1426.6	8.046
328.15 K, x2 = 0.2498	1012.99	1440.5	6.905
328.15 K, x2 = 0.3494	1014.43	1460.2	5.842
328.15 K, x2 = 0.4494	1015.82	1486.4	4.844
328.15 K, x2 = 0.5029	1016.47	1504.2	4.335
328.15 K, x2 = 0.5499	1016.94	1522.6	3.901
328.15 K, x2 = 0.5597	1017.01	1526.7	3.811
328.15 K, x2 = 0.6501	1017.26	1568.3	3.002
328.15 K, x2 = 0.7499	1015.84	1609.2	2.147
328.15 K, x2 = 0.85	1010.71	1617.9	1.36
328.15 K, x2 = 0.9003	1005.57	1602.5	1.012
328.15 K, x2 = 0.9115	1004.09	1597.2	0.942
328.15 K, x2 = 0.9154	1003.54	1595.2	0.917
328.15 K, x2 = 0.927	1001.78	1589	0.848
328.15 K, x2 = 0.9367	1000.17	1583.4	0.793
328.15 K, x2 = 0.9504	997.67	1575.1	0.72
328.15 K, x2 = 0.9551	996.73	1572.2	0.695
328.15 K, x2 = 0.96	995.72	1569.1	0.672
328.15 K, x2 = 0.9696	993.62	1563.1	0.627
328.15 K, x2 = 0.9797	991.21	1556.8	0.582
328.15 K, x2 = 0.9902	988.47	1550.5	0.539
328.15 K, x2 = 0.9923	987.9	1549.3	0.531
328.15 K, x2 = 0.9948	987.19	1547.8	0.521
338.15 K, x2 = 0.044	1002.38	1395.8	6.72
338.15 K, x2 = 0.0987	1003.08	1403.2	6.302
338.15 K, x2 = 0.1484	1003.72	1408.2	5.915
338.15 K, x2 = 0.2498	1005.08	1422.2	5.133
338.15 K, x2 = 0.3494	1006.46	1441.9	4.398
338.15 K, x2 = 0.4494	1007.81	1468	3.698
338.15 K, x2 = 0.5029	1008.45	1485.6	3.337
338.15 K, x2 = 0.5499	1008.91	1503.8	3.027
338.15 K, x2 = 0.5597	1008.99	1507.9	2.961
338.15 K, x2 = 0.6501	1009.3	1549	2.378
338.15 K, x2 = 0.7499	1008.09	1590.8	1.75
338.15 K, x2 = 0.85	1003.47	1604.3	1.156
338.15 K, x2 = 0.9003	998.8	1593.6	0.882
338.15 K, x2 = 0.9115	997.45	1589.7	0.825
338.15 K, x2 = 0.9154	996.94	1588.2	0.806
338.15 K, x2 = 0.927	995.33	1583.5	0.749
338.15 K, x2 = 0.9367	993.86	1579.2	0.702
338.15 K, x2 = 0.9504	991.56	1572.9	0.639
338.15 K, x2 = 0.9551	990.71	1570.7	0.618
338.15 K, x2 = 0.96	989.78	1568.4	0.597
338.15 K, x2 = 0.9696	987.84	1563.8	0.556
338.15 K, x2 = 0.9797	985.63	1559.2	0.515
338.15 K, x2 = 0.9902	983.11	1554.7	0.474
338.15 K, x2 = 0.9923	982.58	1553.9	0.466
338.15 K, x2 = 0.9948	981.93	1552.9	0.457
